Test results reported in publication PMC10060354, “Discovery of a small molecule ligand of FRS2 that inhibits invasion and tumor growth” (Cellular Oncology, 2022).

Key:
[1] = target: T1, GB1-FRS2_PTB:FGFR_PEP (Homo sapiens, UniProt Q8WU20); test: nanoDSF competition assay with the FGFR peptide; type: binding; settings: PTB domain:FGFR peptide 1:5; 500 μM compound
T1 construct: FRS2-PTB 11-140aa; 6xHis (N); made in house; host or cells: E. coli BL21 (DE3) for the protein
T1 sequence (Q8WU20 11-140): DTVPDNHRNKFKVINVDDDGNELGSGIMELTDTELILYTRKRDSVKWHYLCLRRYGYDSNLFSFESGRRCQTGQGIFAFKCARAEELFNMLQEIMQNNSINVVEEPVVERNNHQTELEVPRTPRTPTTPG
Protocol: Purified FRS2_PTB or GB1_FRS2_PTB protein tagged with 6 × Histidine residues and the B1 immunoglobulin binding domain of the streptococcal protein G (GB1) were diluted in the protein buffer (100 mM sodium phosphate, 50 mM NaCl, 0.5 mM EDTA, 50 mM arginine, 1 mM TCEP, pH 7.0) to 30 μM, GB-1 to 40 μM. FGFR_PEP, compounds or paracetamol (PARA) as negative control were dissolved at 1 mM in the protein buffer supplemented with 10% DMSO. Compound and protein were mixed at 1:1 volume ratio yielding a final concentration of 15 μM and 20 μM for FRS2_PTB/GB1_FRS2_PTB and GB1, respectively, as well as 500 μM for FGFR_PEP or compounds. The mixture was incubated for 15 min. Each compound was measured in triplicates. Protein controls were measured in six replicates in the beginning. The quality of the screen was assessed by the Z-factor. nanoDSF validation studies were performed on a Prometheus® system in high sensitivity capillaries. Samples were heated with 1 °C/min from 20 to 95 °C. Each compound was measured in triplicates. GB1-FRS2_PTB and GB1 were diluted in the protein buffer (100 mM sodium phosphate, 50 mM NaCl, 0.5 mM EDTA, 50 mM arginine, 1 mM TCEP, pH 7.0) to 30 μM. Compounds 3.3, 3.4, 3.18 as well as the 3.18 analogues were dissolved in 100% DMSO at 50 or 100 mM and further diluted to 1 mM with a final […]. FGFR_PEP was dissolved at 1 mM in the protein buffer supplemented with 10% DMSO. Compound and protein were mixed at 1:1 volume ratio yielding final concentrations of 15 μM protein and 500 μM for the compounds. FGFR_PEP was measured against both GB1-FRS2_PTB and GB1, all other compounds only against GB1-FRS2_PTB. The mixture was incubated for 15 min before measurement. The data was analyzed for both the ratio of signals at 330 and 350 nm and at 350 nm alone. For the competition assays, the PTB domain and the FGFR peptide were mixed at a 1:5 ratio, and ligand competition was assayed in the presence of 500 μM compound.

[2] = mouse, in vivo
Protocol: […]. Animals received an initial dose of 30 mg/kg. If the animals had no significant adverse effects within 60 min after treatment, the dose for the next cohort was increased. If one or more animals died or had significant adverse effects within 60 min after treatment, the dose for the next cohort was decreased. The testing stopped when all animals survived at the upper bound (200 mg/kg), or lower bound (3 mg/kg) had been reached. Full clinical examinations and body weight change were assessed. At each dose level, animals were observed, and mortality was noted daily after compound administration for three days. […] Body weights were recorded pre-dose and at 72 h.
The next dose level was determined by the following scheme: • 30 mg/kg, if no death, 100 mg/kg, if no death, 200 mg/kg (upper bound) • 30 mg/kg, if no death, 100 mg/kg, if death, 50 mg/kg • 30 mg/kg, if death, 10 mg/kg, if death, 3 mg/kg (lower bound) • 30 mg/kg, if death, 10 mg/kg, if no death, 17 mg/kg

[3] = tested on: HCT116; test: SIA, collagen I invasion; type: cell-based; settings: Homo sapiens, HCT-116, 100 ng/ml bFGF
Protocol: (§1) 1000—2500 cells/well in 100 μl were seeded in 96 well Corning® Spheroid microplate (CLS4520, Sigma-Aldrich) or in cell-repellent 96 well microplate (650,790, Greiner Bio-one). SIA and analysis was performed as described before. In brief: After spheroid formation (24 – 72 h after seeding), 70 µl medium was removed and replaced with the collagen mixture (2.5 mg/ml Pure Col Collagen I (Advanced Biomatrix)), DMEM 1x (from 10 × stock, Sigma, D2429) and 0.4% Sodium bicarbonate (Sigma, S8761)), resulting in a final collagen concentration of 1.75 mg/ml. Embedded spheroids were stimulated with bFGF (100 ng/ml if not otherwise stated), HGF (30 ng /ml) or EGF (20 ng/ml) and distance of invaded cells quantified 24 – 48 h after embedding. Compounds and BGJ398 were added in Dimethylsulfoxid (DMSO) and corresponding DMSO concentrations were used in control samples.

[4] = tested on: M059K; test: SIA, collagen I invasion; type: cell-based; settings: Homo sapiens, 100 ng/ml bFGF
Protocol: as §1

[5] = Multi-dose MTD with plasma exposure; type: in vivo
Protocol: […]. […] Body weights were recorded once daily for 8 days. […] In addition, plasma samples were collected at 0.5, 1, 2 and 5.3 h(s) after the second dose on Day 4 (150 mg/kg, PO; bid × 5 group) and at 0.5, 1, 2 and 6 h(s) after the final dose on Day 5 (200 mg/kg, PO; qd × 5 group). The exposure levels (ng/mL) of 7 in plasma samples were then determined by LC–MS/MS. AUClast was calculated from the area under the plasma concentration–time curve from time zero to time of last measurable concentration.

[6] = tested on: pFRS2Y436; test: IHC of pFRS2Y436 in SKOV3 flank tumor samples; type: in vivo, mice; settings: SKOV3 model; end of treatment
Protocol: IHC of tumor sections was performed by Sophistolab (Muttenz, Switzerland) on a Lecia BondMax instrument using Refine HRP-Kits (Leica DS9800). All buffer-solutions were purchased from Lecia Microsystems Newcastle, Ltd and used according to the manufacturer’s guidelines. Paraffin-slides were de-waxed, pre-treated and incubated as follows: ER-solution 2 for 10 min at 95 °C, ER-solution 2 for 20 min at 100 °C and ER-solution 2 for 30 min at 100 °C. pFRS2; Rabbit anti-Phospho FRS2 (PhosphoY 436, Abcam Limited; ab193363), dilution 1:150; phospho-p44/42 MAPK (Erk1/2Thr202/Tyr204) Rabbit mAb (Cell Signaling Technology #4370), dilution 1:1600. The IHC images were captured digitally using a Nikon Epifluorescence Eclipse Ti2 equipped with a Nikon DS-Ri2 color and a Nikon DS-Qi2 monochrome camera.

Compound	nanoDSF competition with FGFR peptide (result in words) [1]	single-dose tolerability (result in words) [2]	EC50 [3] [nM]	EC50 [4] [nM]	additional body weight loss, days 5-8 ([5]; 200 mg/kg daily for 5 days) [%]	body weight loss, days 1-5 ([5]; 200 mg/kg daily for 5 days) [%]	multi-dose clinical signs (result in words) ([5]; 200 mg/kg daily for 5 days)	plasma concentration reached, multi-dose ([5]; 200 mg/kg once daily for 5 days, day five, for at least six h after administration) [µM]	multi-dose mortality (result in words) ([5]; mouse, in vivo)	pFRS2 Y436 in tumor tissues by IHC (result in words) [6]
O=[N+]([O-])c1c(Cl)cc(O)c2c1C1C=CCC1C(c1ccc(Cl)cc1Cl)N2 (centres unmarked) [Compound 8]	negative shift in compound-mixed samples									
O=[N+]([O-])c1c(Cl)cc(O)c2c1C1C=CCC1C(c1ccc(Cl)cc1)N2 (centres unmarked) [Compound 7]	negative shift in compound-mixed samples	No mortality and body weight loss was observed	416	3280	14.6	10	induced vocalization, hunchback and decrease in touch response, abdominal and limb tone and low limb post	20	No mortality was noted	No clear difference in pFRS2 Y436
